Results as given in patent US5932555A (priority 1997, dated 1999).
≈ marks a conversion by molar mass, not a printed value.

Legend:
P388 = assay: Cytotoxicity test on cultured tumor cell line P388 (MTT, 72 h); type: cell-based
Protocol: (§1) Cultured tumor cell lines P388 and P388/ADR were suspended in RPMI1640 medium containing 10% heat inactivated fetal calf serum (FCS) and 20 μM 2-mercaptoethanol whereby a cell suspension (5×10^4 cells/ml) was prepared.
72 hours thereafter, cell growth was measured by a calorimetric assay method using 3-(4,5-dimethyl-2-thiazolyl)-2,5-diphenyl-2H-tetrazolium bromide (MTT) as follows: 20 μl of 2 mg/ml MTT solution was added to each well and the cells were incubated for 4 hours at 37° C. Thereafter, 50 μl of 50% dimethylformamide solution containing 20% sodium dodecyl sulfate was added to each well and allowed to stand, so that the formed violet formazan crystal was dissolved, and its absorbance at 570 nm was measured in a microplate absorbance photometer (Immunoreader) and used as an indicator of the growth.
(§2) Degree of inhibition=[1-(absorbance in presence of sample)/(absorbance in
(§3) absence of sample)]×100 (1)

[1] = test system: adriamycin-resistant P388; assay: Cytotoxicity test on adriamycin-resistant P388 (P388/ADR) (MTT, 72 h); type: cell-based
Protocol: as §1
A sample examined was dissolved in methanol, then diluted with RPMI 1640 medium and subjected to serial 2-fold dilution starting at the concentration of 0.1 mg/ml. 180 μl of the cell suspension and 20 μl of the sample solution were added into a 96-well micro-titer plate and incubated at 37° C. in wet 5% CO2 gas/95% air. 72 hours thereafter, cell growth was measured by a calorimetric assay method using 3-(4,5-dimethyl-2-thiazolyl)-2,5-diphenyl-2H-tetrazolium bromide (MTT) as follows: 20 μl of 2 mg/ml MTT solution was added to each well and the cells were incubated for 4 hours at 37° C. Thereafter, 50 μl of 50% dimethylformamide solution containing 20% sodium dodecyl sulfate was added to each well and allowed to stand, so that the formed violet formazan crystal was dissolved, and its absorbance at 570 nm was measured in a microplate absorbance photometer (Immunoreader) and used as an indicator of the growth. The result was expressed in terms of the concentration of a sample at which growth was inhibited by 50% (IC50), which was determined from the relationship between sample concentrations and degrees of inhibition calculated using the following equation (1):
as §2, §3

P388/ADR = assay: Mouse in vivo antitumor test, P388/ADR transplanted; details: for T/C / average body weight after 10 days / average survival days: P388/ADR
Protocol: 2×10^5 cells of P388 or P388/ADR were inoculated intraperitoneally into each of CDF1 mice (male, each weighing 20 g, 10 animals/group), and from the next day, the test solution was administered at 10, 5, and 1 mg/kg body weight/day respectively by intraperitoneal injection of 200 μl sample at each concentration once a day for 10 successive days. The numbers with time of mice which survived after administration was counted and the average survival days and T/C (survival days of treated mice/survival days of control mice) were calculated. The average body weights after 10 days were also measured.

[2] = test system: cytotoxic T cell induction by allogenic immunization; assay: In vivo mouse cytotoxic T cell induction test; parameters: species or system mouse (C57BL/6)
Protocol: A 8-week-old, female C57BL/6 mouse (H-2^b) was immunized intraperitoneally with 0.2 ml of cultured cell line P815 suspension (5×10^7 cells/ml PBS) derived from DBA/2 (H-2^d), and 0.2 to 0.3 ml of 0.1 mg/ml sample was administered intraperitoneally at a dosage of 1 mg/kg body weight/day for 5 days including the day of immunization.
To measure cytotoxic T cell activity, 100 μl of the effector cell suspension and 100 μl of the target cell suspension were put to each well on a 96-well round-bottomed microplate and incubated at 37° C. for 4 hours, and the cells were centrifuged and the amount of ^51 Cr released into the supernatant was measured and the cytotoxic T cell activity was calculated using the following equation 2:
Cytotoxic T cell activity=A/B×100 (2)
A: (radioactivity of effector cells+target cells)-(radioactivity of only target cells)
B: (radioactivity of target cells treated with 0.1 N HCl)-(radioactivity of only target cells)
The cytotoxic T cell activity was expressed in terms of lytic unit (LU). One LU is defined as the number of effector cells required for 20% lysis of 2×10^4 target cells, and the result is shown in LU per spleen.
Similarly, the mouse was immunized and then administered 0.2 to 0.3 ml of 1 mg/ml of the sample (i.e. at a dosage of 10 mg/kg body weight/day) by intraperitoneal administration for 5 days and the cytotoxic activity was determined.

Acute toxicity test = details: mouse, in vivo, iv
ICR mice = assay: Acute toxicity test

Q: Which results are given for `COC(CC1C(C)=CCC2C1(C)CCC1C(C)(C)C(O)C(OC3OC(C)C(OC(=O)c4cccc(O)c4)C(OC4OC(CO)C(O)C(O)C4NC(C)=O)C3O)CC12C)C(N)C(=O)O` (stereo not shown) [0406TP-1]?
A: IC50 (P388; Mus musculus, P388, 72 h, MTT, read-out: IC50 (growth inhibition)): 0.65 µg/mL (≈ 0.728 µM); cytotoxicity (antitumor activity) on cultured tumor cells (P388; in words): strong cytotoxicity; IC50 ([1]; Mus musculus, adriamycin-resistant P388, 72 h, MTT, read-out: IC50 (growth inhibition)): 0.22 µg/mL (≈ 0.246 µM); inhibition on growth of adriamycin-resistant cells ([1]; in words): strong inhibition; T/C (P388/ADR; 1 mg/kg/day i.p. × 10 days): 130%; average body weight after 10 days (P388/ADR; 1 mg/kg/day i.p. × 10 days): 26.2 g; average survival days (P388/ADR; 1 mg/kg/day i.p. × 10 days): 14.4 days; T/C (P388/ADR; 5 mg/kg/day i.p. × 10 days): 133%; average body weight after 10 days (P388/ADR; 5 mg/kg/day i.p. × 10 days): 27.3 g; average survival days (P388/ADR; 5 mg/kg/day i.p. × 10 days): 14.8 days; T/C (P388/ADR; 10 mg/kg/day i.p. × 10 days): 165%; average body weight after 10 days (P388/ADR; 10 mg/kg/day i.p. × 10 days): 26.4 g; average survival days (P388/ADR; 10 mg/kg/day i.p. × 10 days): 18.3 days; therapeutic effect (P388/ADR; P388/ADR-transplanted mice): significant therapeutic effect; Cytotoxic T cell activity ([2]; 1.0 mg/kg/day × 5 days i.p.): 350 LU/spleen; Cytotoxic T cell activity inhibition ([2]; 1.0 mg/kg/day × 5 days i.p.): 12%; Cytotoxic T cell activity ([2]; 10 mg/kg/day × 5 days i.p.): 285 LU/spleen; Cytotoxic T cell activity inhibition ([2]; 10 mg/kg/day × 5 days i.p.): 38%; inhibition of induction of cytotoxic T cells in spleen cells ([2]; allogenic-immunized mouse, intraperitoneal, in words): inhibit induction of cytotoxic T cells; LD50 at 730 h (Acute toxicity test): > 100 mg/kg; survival (ICR mice; 100 mg/kg i.v., one month observation): all survived; toxicity and safety (ICR mice; acute toxicity test, in words): low toxicity
